Results from patent US7901936B2, “Method for stimulating self-renewal of neural stem cells and enhancing neurogenesis” (Albany Medical College, priority 2004, dated 2011).
Starred links: 1 amine or outer side, 2 acyl side, 3 side chain; linkers in the order of their positions; H or OH if unused. Non-standard residues stand in square brackets, D forms with d. Residues, ends and D or L forms follow the SMILES beside them. *: point of attachment. X1 = CC(N[*:1])C(=O)C(F)(F)C(=O)[*:2]; Boc = CC(C)(C)OC(=O)*

Columns and labels:
[1] = system: BPAE co-culture clones (cortical stem cells); experiment: Inhibition of Notch activation in endothelial co-cultured cortical stem cell clones; assay type: cell-based, mouse; settings: BPAE co-culture clones treated for 6 hours, 50 μM, vs DMSO vehicle
Description: γ-secretase inhibitor II (Calbiochem, 50 μM) in DMSO was added to co-cultured cells after 4 days for 6 hours. The same amount of DMSO was used as vehicle control. The cells were then fixed and stained for β-tubulin III and double-labelled for Nestin or β-catenin, and the stained cells were quantified.

[2] = system: cortical stem cell clones; experiment: Clonal growth of cortical stem cells with added soluble growth factors (without feeder cells); assay type: cell-based, mouse; settings: for duplication of the effect of endothelial co-culture on clonal growth: factor added at 10-50 ng/ml to serum-free medium with FGF2, no feeder cells
Description: Embryonic cerebral cortices and adult SVZ were dissected and dissociated as described (18-20). Single cells were plated into poly-l-lysine-coated 6-well plates (Costar) at clonal density (2000-4000 cells/well) and cultured in basal serum-free medium consisting of DMEM, B27, N2, NAC and 10 ng/ml FGF2 (19,20). To test the effects of soluble growth factors (PDGF, CNTF, TGFβ, IGF1, IL1, IL6, G-CSF, M-CSF, GM-CSF, LIF, BDNF, Steel factor, VEGF or EGF), each factor was added to serum-free medium with FGF2 at a range of 10-50 ng/ml, and clonal growth (cell number and generation of neurons and glia) was assessed (without co-cultured feeder cells). LIF and VEGF were also tested in combination, each added at 10 ng/ml into serum-free medium, with and without FGF2.

Compound | duplication of the effect of endothelial co-culture on clonal growth [2] | other results
CCC(C)C(NC(=O)C(NC(=O)OC(C)(C)C)C(C)C)C(=O)NC(C)C(=O)C(F)(F)C(=O)NC(C(=O)NC(C(=O)OC)C(C)CC)C(C)C (centres unmarked) [γ-secretase inhibitor II] (Boc-VI[X1]VI-OMe; configuration not given here) |  | β-catenin staining [1]: significantly decreased; β-tubulin-III staining [1]: significantly increased
EGF: soluble growth factor (NSDSECPLSHDGYCLHDGVCMYIEALDKYACNCVVGYIGERCQYRDLKWWELR; Epidermal growth factor; UniProt P01133 971-1023, looked up) | none duplicated the result we see from endothelial co-cultures | 
FGF2: soluble growth factor in basal serum-free medium | none duplicated the result we see from endothelial co-cultures | neural stem cell proliferation ([2]; FGF2 alone): promotes neural stem cell proliferation; neural stem cell self-renewal ([2]; FGF2 alone): cannot alone maintain their self-renewal
GM-CSF: soluble growth factor | none duplicated the result we see from endothelial co-cultures | 
IGF1: soluble growth factor | none duplicated the result we see from endothelial co-cultures | 
IL6: soluble growth factor | none duplicated the result we see from endothelial co-cultures | 
LIF: soluble growth factor | none duplicated the result we see from endothelial co-cultures | 
PDGF | none duplicated the result we see from endothelial co-cultures | 
Steel factor: soluble growth factor | none duplicated the result we see from endothelial co-cultures | 
TGFβ | none duplicated the result we see from endothelial co-cultures | 
VEGF | Neither factor, alone or in combination, duplicated the effect of endothelial factors | 
